Here are results for 9 molecules from patent US11459329B2, “Imidazopyridazine and imidazopyridine compounds and uses thereof” (Incyte Corporation, priority 2018, dated 2022).

What is called IC50 is the concentration needed to halve the response being measured.

In one assay the test system is ALK2 mutant DIPG cell. The settings on record: ALK2 mutant DIPG cells; cited from earlier work.
In another assay the target is ALK2 (aa 147-end) (Homo sapiens (Human), UniProt Q04771). The assay can be described thus: ALK2 HTRF Assay. The class given is biochemical. To be noted: 3 μM ATP, 0.5 nM ALK2, 2 hr, 25° C.; read-out: ALK2 IC50. (Time-resolved FRET reads energy transfer from a long-lived donor to a nearby acceptor.)
Chain of ALK2 (aa 147-end) (Q04771 147-509): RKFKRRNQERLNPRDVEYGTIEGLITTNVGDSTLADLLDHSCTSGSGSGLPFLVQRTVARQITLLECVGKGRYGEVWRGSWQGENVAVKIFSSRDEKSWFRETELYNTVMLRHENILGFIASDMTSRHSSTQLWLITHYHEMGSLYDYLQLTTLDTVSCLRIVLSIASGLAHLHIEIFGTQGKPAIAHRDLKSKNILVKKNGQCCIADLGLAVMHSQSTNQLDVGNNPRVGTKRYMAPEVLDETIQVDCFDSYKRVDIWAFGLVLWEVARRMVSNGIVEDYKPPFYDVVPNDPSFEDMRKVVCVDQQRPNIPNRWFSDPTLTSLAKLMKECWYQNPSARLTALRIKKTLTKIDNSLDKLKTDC

On to `c1ccc2c(-c3cnn4cc(-c5ccc(N6CCNCC6)cc5)cnc34)ccnc2c1` [LDN-19318917], for which the “inhibition of ALK2 mutant DIPG cell viability” value in the assay with ALK2 mutant DIPG cell is listed as “significant inhibition”.

For `Cc1nn2c(-c3ccnc4nc(-c5cnccn5)ccc34)cnc2cc1-c1cnn(C(C)C)c1` [Example 43, 5-(7-(1-Isopropyl-1H-pyrazol-4-yl)-6-methylimidazo[1,2-b]pyridazin-3-yl)-2-(pyrazin-2-yl)-1,8-naphthyridine], on ALK2 (aa 147-end), the IC50 is 1 to 5 nM.

For `Cc1nn2c(-c3ccnc4cc(-c5ccncc5)ccc34)cnc2cc1-c1ccc(C(=O)N2CCN(C)CC2)cc1` [Example 14, (4-(6-Methyl-3-(7-(pyridin-4-yl)quinolin-4-yl)imidazo[1,2-b]pyridazin-7-yl)phenyl)(4-methylpiperazin-1-yl)methanone], the IC50 at ALK2 (aa 147-end) lay within 1 to 5 nM.

Regarding `Cc1nn2c(-c3ccnc4cc(N5CCN6C(=O)CCC6C5)ccc34)cnc2cc1-c1cnn([C@H]2CC[C@H](O)CC2)c1` (stereo partly drawn) [Example 34, 2-(4-(7-(1-((1R,4R)-4-hydroxycyclohexyl)-1H-pyrazol-4-yl)-6-methylimidazo[1,2-b]pyridazin-3-yl)quinolin-7-yl)hexahydropyrrolo[1,2-a]pyrazin-6(2H)-one], on ALK2 (aa 147-end), the IC50 lay in the range of 5 to 100 nM.

Take `Cc1nn2c(-c3ccnc4cc(CO)ccc34)cnc2cc1-c1ccc(N2CCNCC2)cc1` [Example 26, (4-(6-methyl-7-(4-(piperazin-1-yl)phenyl)imidazo[1,2-b]pyridazin-3-yl)quinolin-7-yl)methanol]: the IC50 on ALK2 (aa 147-end) was in the range of 5 to 100 nM.

As to `Cc1nn2c(-c3ccnc4cc(-c5ccncc5)ccc34)cnc2cc1-c1cccc(N2CCN(C)CC2)c1` [Example 13, 4-(6-Methyl-7-(3-(4-methylpiperazin-1-yl)phenyl)imidazo[1,2-b]pyridazin-3-yl)-7-(pyridin-4-yl)quinolone], on ALK2 (aa 147-end), the IC50 is 5 to 100 nM.

Regarding `Cc1cn2c(-c3ccnc4ccccc34)cnc2cc1-c1cnn(C2CCNCC2)c1` [Example 35, 4-(6-methyl-7-(1-(piperidin-4-yl)-1H-pyrazol-4-yl)imidazo[1,2-a]pyridin-3-yl)quinoline], on ALK2 (aa 147-end), the half-maximal inhibitory concentration (IC50) lay in the range of 1 to 5 nM.

Regarding `CCn1cc(-c2cc3ncc(-c4ccnc5nc(-c6ccccn6)ccc45)n3nc2C)cn1` [Example 39, 5-(7-(1-Ethyl-1H-pyrazol-4-yl)-6-methylimidazo[1,2-b]pyridazin-3-yl)-2-(pyridin-2-yl)-1,8-naphthyridine], the IC50 at ALK2 (aa 147-end) lay in the range of 1 to 5 nM.

Consider `CC(=O)N1CCN(c2ccc3c(-c4cnc5cc(-c6ccc(N7CCNCC7)cc6)c(C)nn45)ccnc3c2)CC1` [Example 23, 1-(4-(4-(6-methyl-7-(4-(piperazin-1-yl)phenyl)imidazo[1,2-b]pyridazin-3-yl)quinolin-7-yl)piperazin-1-yl)ethan-1-one], for which, on ALK2 (aa 147-end), the concentration for half-maximal inhibition (IC50) is 5 to 100 nM.
